Source: patent US6949250B2, “Selective algaecides for control of cyanochloronta” (The United States of America as represented by the …, priority 2002, dated 2005)
Converted amounts (≈) assume the structure as drawn. “Also recorded” adds a separate entry of the source. Where two headings read alike, the source gives them in different places.

Columns and labels:
MIB = experiment: Pond efficacy testing of 9,10-anthraquinone using limnocorrals: MIB levels; type: in vivo; details: dissolved in ethanol, unpublished observations
Excerpt: (§1) Previous research (K. K. Schrader, M. Q. de Regt, P. D. Tidwell, C. S. Tucker and S. O. Duke, Selective growth inhibition of the musty-odor producing cyanobacterium Oscillatoria cf. chalybea by natural compounds. Bull. Environ. Contam. Toxicol. (1998a), vol. 60, pp. 651-658) has identified several natural compounds from plants that are selectively toxic towards O. perornata.

O. perornata [1] = experiment: Pond efficacy testing of 9,10-anthraquinone using limnocorrals: O. perornata numbers; type: in vivo, Oscillatoria perornata; details: dissolved in ethanol, unpublished observations
Excerpt: as §1

O. perornata [2] = details: cited from earlier work
Oscillatoria perornata = experiment: Rapid bioassay screening for selective algicides (LOEC, LCIC); type: cell-based; details: for MIC: read-out: LCIC (lowest-complete-inhibition concentration), Oscillatoria perornata; for minimal effective concentration: read-out: LOEC (lowest-observed-effect concentration), Oscillatoria perornata
Excerpt: (§2) These were screened in the laboratory by the method of Schrader et al. (K. K. Schrader, M. Q. de Regt, C. S. Tucker and S. O. Duke, A rapid bioassay for selective algicides. Weed Technol. (1997), vol. 11, pp. 767-774) for algicidal activity.
(§3) The anthraquinone derivatives were screened for selective toxicity towards Oscillatoria perornata, previously isolated from a Mississippi catfish pond, using the method of Schrader et al. (1997). The green alga Selenastrum capricornutum (obtained from the United States Environmental Protection Agency, Corvallis, Oreg.) was used as the representative green algal species in the bioassay since it is a common species found in southeastern United States catfish ponds. Absorbance readings were graphed, and graphs were used to determine the LOEC (lowest-observed-effect concentration) and the LCIC (lowest-complete-inhibition concentration) for each anthraquinone analog. In addition, a 96-hour 50% inhibition concentration (IC50) was determined for DNA1-19-1 and DNA2-59-1 by using the method described by Schrader et al. (1998b). Stock solutions of DNA1-19-1 and DNA2-59-1 were prepared so that final concentrations screened for 96-hour IC50 determinations were as follows: 1) 0, 0.01, 0.033, 0.1, 0.333, 1.0, 3.3, and 10.0 μM DNA1-19-1 for both O. perornata and S. capricornutum; 2) 0, 0.003, 0.01, 0.033, 0.1, 0.333, 1.0, and 3.333 μM DNA2-59-1 for O. perornata; and 3) 0, 0.1, 0.333, 1.0, 3.333, 10.0, 33.333, and 100.0 μM DNA2-59-1 for S. capricornutum. Estimation of the IC50 was determined by plotting 96-hour absorbance readings against logarithmic dilution values of the anthraquinone analogs. The screening results of the anthraquinone derivatives and commercially available analogs of anthraquinone are presented in Tables 1 and 2, respectively. The results in Table 1 reveal that DNA1-19-1 and DNA2-59-1 are the most promising analogs since these two compounds had the lowest LOEC and LCIC values for O. perornata (10 nM and 100 nM, respectively). Based upon IC50 results in Table 3, DNA2-59-1 appears to be more toxic and selective towards O. perornata than DNA1-19-1.
as §3, with “(A rapid bioassay for selective algicides. Weed Technol. (1997), vol. 11, pp. 767-774).” for “(1997).”, “(K. K. Schradar, M. Q. de Regt, P. D. Tidwell, C. S. Tucker and S. O. Duke, Selective growth inhibition of the musty-odor producing cyanobacterium Oscillatoria cf. chalybea by natural compounds. Bull. Environ. Contam. Toxicol. (1998a), vol.60, pp. 651-658).” for “(1998b).”, “The screening results of the anthraquinone derivatives and commercially available analogs of anthraquinone are presented in Tables 1 and 2, respectively. The results in Table 1 reveal that DNA1-19-1 and DNA2-59-1 are the most promising analogs since these two compounds had the lowest LOEC and LCIC values for O. perornata (10 nM and 100 nM, respectively). Based upon IC50 results in Table 3, DNA2-59-1 appears to be more toxic and selective towards O. perornata than DNA1-19-1.” left out

[3] = test system: Selenastrum capricornutum; experiment: as above; type: cell-based; details: for MIC / minimal effective concentration: Selenastrum capricornutum; for MIC: read-out: LCIC (lowest-complete-inhibition concentration), Selenastrum capricornutum; for minimal effective concentration: read-out: LOEC (lowest-observed-effect concentration), Selenastrum capricornutum
Excerpt: as §2, §3
as §3, with “(A rapid bioassay for selective algicides. Weed Technol. (1997), vol. 11, pp. 767-774).” for “(1997).”, “(K. K. Schradar, M. Q. de Regt, P. D. Tidwell, C. S. Tucker and S. O. Duke, Selective growth inhibition of the musty-odor producing cyanobacterium Oscillatoria cf. chalybea by natural compounds. Bull. Environ. Contam. Toxicol. (1998a), vol.60, pp. 651-658).” for “(1998b).”, “The screening results of the anthraquinone derivatives and commercially available analogs of anthraquinone are presented in Tables 1 and 2, respectively. The results in Table 1 reveal that DNA1-19-1 and DNA2-59-1 are the most promising analogs since these two compounds had the lowest LOEC and LCIC values for O. perornata (10 nM and 100 nM, respectively). Based upon IC50 results in Table 3, DNA2-59-1 appears to be more toxic and selective towards O. perornata than DNA1-19-1.” left out

[4] = Planktothrix perornata, rapid screening

O=C1c2ccccc2C(=O)c2ccccc21 [9,10-anthraquinone]
reduction of MIB levels in pond (result in words) (MIB): did not effectively reduce
reduction of numbers of O. perornata in pond (result in words) (O. perornata [1]): did not effectively reduce
effect on photosynthesis (result in words) (O. perornata [2]; Schrader et al. 2000): inhibits photosynthesis
activity / toxicity towards O. perornata in the laboratory (result in words) (O. perornata [2]; previous research (Schrader et al. 1998)): high degree of selective toxicity; also recorded: potent activity

COCCOCCOCCOc1cccc2c1C(=O)c1ccccc1C2=O [DNA3-11-1, 1-[2-[2-(2-Methoxyethoxy)ethoxy]ethoxy]-9,10-anthraquinone]
MIC (Oscillatoria perornata; [4]): 10 µM (≈ 3.7 µg/mL)
minimal effective concentration (Oscillatoria perornata; [4]): 10 µM
MIC ([3]; rapid screening): > 100 µM
minimal effective concentration ([3]; rapid screening): > 100 µM

COCCOc1cccc2c1C(=O)c1ccccc1C2=O [DNA3-13-1, 1-(2-Methoxyethoxy)-9,10-anthraquinone]
MIC (Oscillatoria perornata; [4]): 10 µM (≈ 2.82 µg/mL)
minimal effective concentration (Oscillatoria perornata; [4]): 10 µM
MIC ([3]; rapid screening): > 100 µM
minimal effective concentration ([3]; rapid screening): 0.01 µM

O=C1c2ccccc2C(=O)c2c(OCCOCCOCCO)cccc21 [DNA3-15-1, 1-[2-[2-(2-Hydroxyethoxy)ethoxy]ethoxy]-9,10-anthraquinone]
MIC (Oscillatoria perornata; [4]): 10 µM (≈ 3.56 µg/mL)
minimal effective concentration (Oscillatoria perornata; [4]): 10 µM
MIC ([3]; rapid screening): > 100 µM
minimal effective concentration ([3]; rapid screening): 0.01 µM

CCNCc1ccc2c(c1)C(=O)c1ccccc1C2=O.O=P(O)(O)O [DNA3-17-1, 2-[Methylamino-N-(ethyl)]-9,10-anthraquinone monophosphate]
LCIC (lowest-complete-inhibition concentration), Oscillatoria perornata (Oscillatoria perornata; rapid screening): 1,000 nM
LOEC (lowest-observed-effect concentration), Oscillatoria perornata (Oscillatoria perornata; rapid screening): 1,000 nM
LCIC (lowest-complete-inhibition concentration), Selenastrum capricornutum ([3]; rapid screening): 10,000 nM
LOEC (lowest-observed-effect concentration), Selenastrum capricornutum ([3]; rapid screening): 10,000 nM

CNCc1ccc2c(c1)C(=O)c1ccccc1C2=O.O=P(O)(O)O [DNA3-19-1, 2-[Methylamino-N-(methyl)]-9,10-anthraquinone monophosphate]
LCIC (lowest-complete-inhibition concentration), Oscillatoria perornata (Oscillatoria perornata; rapid screening): 1,000 nM
LOEC (lowest-observed-effect concentration), Oscillatoria perornata (Oscillatoria perornata; rapid screening): 1,000 nM
LCIC (lowest-complete-inhibition concentration), Selenastrum capricornutum ([3]; rapid screening): 10,000 nM
LOEC (lowest-observed-effect concentration), Selenastrum capricornutum ([3]; rapid screening): 10,000 nM

CCCNCc1ccc2c(c1)C(=O)c1ccccc1C2=O.O=P(O)(O)O [DNA3-31-1, 2-[Methylamino-N-(propyl)]-9,10-anthraquinone monophosphate]
LCIC (lowest-complete-inhibition concentration), Oscillatoria perornata (Oscillatoria perornata; rapid screening): 1,000 nM
LOEC (lowest-observed-effect concentration), Oscillatoria perornata (Oscillatoria perornata; rapid screening): 1,000 nM
LCIC (lowest-complete-inhibition concentration), Selenastrum capricornutum ([3]; rapid screening): 10,000 nM
LOEC (lowest-observed-effect concentration), Selenastrum capricornutum ([3]; rapid screening): 10,000 nM

CC(C)(C)NCc1ccc2c(c1)C(=O)c1ccccc1C2=O.O=P(O)(O)O [DNA3-33-1, 2-[Methylamino-N-(1′1′-dimethylethyl)]-9,10-anthraquinone monophosphate]
LCIC (lowest-complete-inhibition concentration), Oscillatoria perornata (Oscillatoria perornata; rapid screening): 1,000 nM
LOEC (lowest-observed-effect concentration), Oscillatoria perornata (Oscillatoria perornata; rapid screening): 1,000 nM
LCIC (lowest-complete-inhibition concentration), Selenastrum capricornutum ([3]; rapid screening): 10,000 nM
LOEC (lowest-observed-effect concentration), Selenastrum capricornutum ([3]; rapid screening): 1,000 nM

O=C1c2ccccc2C(=O)c2cc(CNC3CC3)ccc21.O=P(O)(O)O [DNA3-35-1, 2-[Methylamino-N-(cyclopropyl)]-9,10-anthraquinone monophosphate]
LCIC (lowest-complete-inhibition concentration), Oscillatoria perornata (Oscillatoria perornata; rapid screening): 1,000 nM
LOEC (lowest-observed-effect concentration), Oscillatoria perornata (Oscillatoria perornata; rapid screening): 1,000 nM
LCIC (lowest-complete-inhibition concentration), Selenastrum capricornutum ([3]; rapid screening): 100,000 nM
LOEC (lowest-observed-effect concentration), Selenastrum capricornutum ([3]; rapid screening): 10,000 nM

O=C1c2ccccc2C(=O)c2c(OCCOCCOCCOCCOCCO)cccc21 [DNA3-49-1, 1-[2-[2-[2-[2-(2-Hydroxyethoxy)ethoxy]ethoxy]ethoxy]ethoxy]-9,10-anthraquinone]
MIC (Oscillatoria perornata; [4]): 10 µM (≈ 4.44 µg/mL)
minimal effective concentration (Oscillatoria perornata; [4]): 1 µM
MIC ([3]; rapid screening): > 100 µM
minimal effective concentration ([3]; rapid screening): > 100 µM

O=C1c2ccccc2C(=O)c2cc(OCCOCCOCCOCCOCCO)ccc21 [DNA3-51-1, 2-[2-[2-[2-[2-(2-Hydroxyethoxy)ethoxy]ethoxy]ethoxy]ethoxy]-9,10-anthraquinone]
MIC (Oscillatoria perornata; [4]): 100 µM (≈ 44.4 µg/mL)
minimal effective concentration (Oscillatoria perornata; [4]): 0.1 µM
MIC ([3]; rapid screening): > 100 µM
minimal effective concentration ([3]; rapid screening): > 100 µM

COCCOCCOCCOCCOc1cccc2c1C(=O)c1ccccc1C2=O [DNA3-53-1, 1-[2-[2-[2-(2-Methoxyethoxy)ethoxy]ethoxy]ethoxy]-9,10-anthraquinone]
MIC (Oscillatoria perornata; [4]): 100 µM (≈ 41.4 µg/mL)
minimal effective concentration (Oscillatoria perornata; [4]): 10 µM
MIC ([3]; rapid screening): > 100 µM
minimal effective concentration ([3]; rapid screening): 100 µM

COCCOCCOCCOCCOc1ccc2c(c1)C(=O)c1ccccc1C2=O [DNA3-55-1, 2-[2-[2-[2-(2-Methoxyethoxy)ethoxy]ethoxy]ethoxy]-9,10-anthraquinone]
MIC (Oscillatoria perornata; [4]): 100 µM (≈ 41.4 µg/mL)
minimal effective concentration (Oscillatoria perornata; [4]): 10 µM
MIC ([3]; rapid screening): > 100 µM
minimal effective concentration ([3]; rapid screening): > 100 µM

O=C1c2ccccc2C(=O)c2cc(COCCOCCOCCO)ccc21 [DNA3-57-1, 2-Methylene-[2-[2-(2-hydroxyethoxy)ethoxy]ethoxy]-9,10-anthraquinone]
LCIC (lowest-complete-inhibition concentration), Oscillatoria perornata (Oscillatoria perornata; rapid screening): 10,000 nM
minimal effective concentration (Oscillatoria perornata; rapid screening): 0.1 µM
LCIC (lowest-complete-inhibition concentration), Selenastrum capricornutum ([3]; rapid screening): >100,000 nM
LOEC (lowest-observed-effect concentration), Selenastrum capricornutum ([3]; rapid screening): >100,000 nM

O=C1c2ccccc2C(=O)c2cc(COCCOCCOCCOCCO)ccc21 [DNA3-59-1, 2-Methylene-[2-[2-[2-(2-hydroxyethoxy)ethoxy]ethoxy]ethoxy]-9,10-anthraquinone]
LCIC (lowest-complete-inhibition concentration), Oscillatoria perornata (Oscillatoria perornata; rapid screening): 100,000 nM
minimal effective concentration (Oscillatoria perornata; rapid screening): 0.1 µM
LCIC (lowest-complete-inhibition concentration), Selenastrum capricornutum ([3]; rapid screening): >100,000 nM
LOEC (lowest-observed-effect concentration), Selenastrum capricornutum ([3]; rapid screening): >100,000 nM

COCCOCCOCCOCc1ccc2c(c1)C(=O)c1ccccc1C2=O [DNA3-61-1, 2-methylene-[2-[2-(2-methoxyethoxy)ethoxy]ethoxy]-9,10-anthraquinone]
LCIC (lowest-complete-inhibition concentration), Oscillatoria perornata (Oscillatoria perornata; rapid screening): 10,000 nM
minimal effective concentration (Oscillatoria perornata; rapid screening): 0.1 µM
LCIC (lowest-complete-inhibition concentration), Selenastrum capricornutum ([3]; rapid screening): >100,000 nM
LOEC (lowest-observed-effect concentration), Selenastrum capricornutum ([3]; rapid screening): >100,000 nM

CCN(CC)Cc1cccc2c1C(=O)c1ccccc1C2=O [DNA4-39-1, 1-[Methylamino-N,N-(diethyl)]-9,10-anthraquinone monophosphate]
LCIC (lowest-complete-inhibition concentration), Oscillatoria perornata (Oscillatoria perornata; rapid screening): 1,000 nM
minimal effective concentration (Oscillatoria perornata; rapid screening): 0.1 µM
LCIC (lowest-complete-inhibition concentration), Selenastrum capricornutum ([3]; rapid screening): 10,000 nM
LOEC (lowest-observed-effect concentration), Selenastrum capricornutum ([3]; rapid screening): 10,000 nM

O=C1c2cccc(S(=O)(=O)O)c2C(=O)c2cccc(S(=O)(=O)O)c21 [anthraquinone-1,5-disulfonic acid, reference compound]
MIC (Oscillatoria perornata; [4]): > 1000 µM
MIC ([3]; rapid screening): > 1000 µM

O=C(O)c1ccc2c(c1)C(=O)c1ccccc1C2=O [anthraquinone-2-carboxylic acid, reference compound]
MIC (Oscillatoria perornata; Planktothrix perornata): > 1000 µM
MIC [3]: > 1000 µM
